In patent US20260132132A1, “3A,4,5,6-TETRAHYDRO-1 H-PYRAZOLO[3,4-C]PYRIDIN-7(7AH)-ONE DERIVATIVES AS FACTOR XIIA INHIBITORS” (KALVISTA PHARMACEUTICALS LIMITED, priority 2022, published 2026):

How the values were obtained:
[1] = biological target: T1, Human Factor XIIa (hFXIIa) (Homo sapiens, UniProt P00748); test: Determination of Human Factor XIIa (hFXIIa) inhibition, fluorogenic substrate IC50 assay; format: biochemical; details: fluorogenic substrate H-DPro-Phe-Arg-AFC at Km, 25° C., read-out: Human FXIIa IC50
T1 construct: purchased Enzyme Research Laboratories
T1 sequence (P00748 373-615 limits assumed): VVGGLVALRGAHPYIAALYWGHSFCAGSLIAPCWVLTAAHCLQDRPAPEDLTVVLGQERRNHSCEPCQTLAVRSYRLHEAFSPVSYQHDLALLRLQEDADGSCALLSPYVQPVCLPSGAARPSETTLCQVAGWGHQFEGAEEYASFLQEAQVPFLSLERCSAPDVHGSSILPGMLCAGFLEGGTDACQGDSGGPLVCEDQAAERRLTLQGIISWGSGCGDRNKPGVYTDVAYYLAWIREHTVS
T1 sequence (P00748 20-372 partner limits assumed): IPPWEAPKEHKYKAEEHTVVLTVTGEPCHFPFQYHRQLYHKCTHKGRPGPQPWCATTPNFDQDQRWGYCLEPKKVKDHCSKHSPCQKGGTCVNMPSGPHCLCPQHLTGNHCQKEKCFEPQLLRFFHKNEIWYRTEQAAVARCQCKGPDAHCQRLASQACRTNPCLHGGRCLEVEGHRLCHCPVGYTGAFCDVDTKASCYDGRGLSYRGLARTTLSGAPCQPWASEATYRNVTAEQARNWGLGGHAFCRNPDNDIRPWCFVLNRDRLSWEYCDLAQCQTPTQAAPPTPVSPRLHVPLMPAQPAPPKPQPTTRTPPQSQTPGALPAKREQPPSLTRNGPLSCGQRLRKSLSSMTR
Procedure: Determination of Human Factor XIIa (hFXIIa) inhibition
The Km for the cleavage of the substrate by hFXIIa was determined by standard transformation of the Michaelis-Menten equation, with subsequent inhibition assays performed at substrate Km concentration.

FXa = FXa (Homo sapiens, UniProt P00742); test: Related protease inhibition: FXa, fluorogenic substrate; format: biochemical; details: fluorogenic substrate at Km, 25° C.; H1-H3 = % activity at 40 μM
FXa, sequence (P00742 235-488 limits assumed): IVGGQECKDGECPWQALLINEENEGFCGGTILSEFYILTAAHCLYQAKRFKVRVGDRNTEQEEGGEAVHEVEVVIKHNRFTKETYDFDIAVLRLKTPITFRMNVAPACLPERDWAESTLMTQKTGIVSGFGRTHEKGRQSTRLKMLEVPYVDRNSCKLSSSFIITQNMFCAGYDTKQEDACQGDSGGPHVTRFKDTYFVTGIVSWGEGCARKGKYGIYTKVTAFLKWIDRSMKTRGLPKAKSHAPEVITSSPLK
FXa, sequence (P00742 41-179 partner limits assumed): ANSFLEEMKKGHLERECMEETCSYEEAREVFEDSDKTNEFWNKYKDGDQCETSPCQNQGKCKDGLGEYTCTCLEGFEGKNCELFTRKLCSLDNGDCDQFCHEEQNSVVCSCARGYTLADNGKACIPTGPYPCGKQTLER
Procedure: Human serine protease enzyme Plasma Kallikrein, KLK1, FXa, Plasmin, Thrombin and Trypsin were assayed for enzymatic activity using an appropriate fluorogenic substrate at Km concentration, FXIa at fixed substrate concentration of 100 μM and various concentrations of the test compound.

| Structure (SMILES) | IC50 [1] [nM] | IC50 (FXa) [nM] |
| --- | --- | --- |
| Cc1cc(CNC(=O)c2nn(-c3cccc(Cl)c3)c3c2CCN(c2ccc4c(c2)C(=O)N(C)CCC4)C3=O)nn1C [Example 1238, 1-(3-Chlorophenyl)-N-[(1,5-dimethylpyrazol-3-yl)methyl]-6-(2-methyl-1-oxo-4,5-dihydro-3H-2-benzazepin-8-yl)-7-oxo-4,5-dihydropyrazolo[3,4-c]pyridine-3-carboxamide] | 100 to 300 | 3000 to 10000 |
| O=C(NCc1cccnc1)c1nn(-c2cccc(Cl)c2)c2c1CCN(c1ccc3c(c1)CN(CCO)CC3)C2=O [Example 1078, 1-(3-chlorophenyl)-6-(2-(2-hydroxyethyl)-1,2,3,4-tetrahydroisoquinolin-7-yl)-7-oxo-N-(pyridin-3-ylmethyl)-4,5,6,7-tetrahydro-1H-pyrazolo[3,4-c]pyridine-3-carboxamide] | 10 to 100 | 3000 to 10000 |
| CS(=O)(=O)CCN1CCc2ccc(N3CCc4c(C(=O)NCC5CC5)nn(-c5cccc(Cl)c5)c4C3=O)cc2C1 [Example 1176, 1-(3-chlorophenyl)-N-(cyclopropylmethyl)-6-(2-(2-(methylsulfonyl)ethyl)-1,2,3,4-tetrahydroisoquinolin-7-yl)-7-oxo-4,5,6,7-tetrahydro-1H-pyrazolo[3,4-c]pyridine-3-carboxamide] | 300 to 1000 | > 40000 |
| CCN1CCc2ccc(N3CCc4c(C(=O)NC5COCC5(C)C)nn(-c5cccc(Cl)c5)c4C3=O)cc2C1 (stereo not shown) [Example 1092, 1-(3-chlorophenyl)-N-(4,4-dimethyltetrahydrofuran-3-yl)-6-(2-ethyl-1,2,3,4-tetrahydroisoquinolin-7-yl)-7-oxo-4,5,6,7-tetrahydro-1H-pyrazolo[3,4-c]pyridine-3-carboxamide] | 100 to 300 | > 40000 |
| Cc1cc(CNC(=O)c2nn(-c3cccc(Cl)c3)c3c2CCN(c2ccc4c(c2)C(=O)N(C)CC4)C3=O)n[nH]1 [Example 1200, 1-(3-chlorophenyl)-6-(2-methyl-1-oxo-1,2,3,4-tetrahydroisoquinolin-7-yl)-N-((5-methyl-1H-pyrazol-3-yl)methyl)-7-oxo-4,5,6,7-tetrahydro-1H-pyrazolo[3,4-c]pyridine-3-carboxamide] | 100 to 300 | 10000 to 40000 |
| Cc1ccncc1CNC(=O)c1nn(-c2cccc(Cl)c2)c2c1CCN(c1ccc3c(c1)C(=O)N(CCO)CC3)C2=O [Example 1236, 1-(3-chlorophenyl)-6-(2-(2-hydroxyethyl)-1-oxo-1,2,3,4-tetrahydroisoquinolin-7-yl)-N-((4-methylpyridin-3-yl)methyl)-7-oxo-4,5,6,7-tetrahydro-1H-pyrazolo[3,4-c]pyridine-3-carboxamide] | 10 to 100 | > 40000 |
| CN1CCc2ccc(N3CCc4c(C(=O)NC5(C)CCOCC5)nn(-c5cccc(Cl)c5)c4C3=O)cc2C1=O [Example 1266, 1-(3-chlorophenyl)-6-(2-methyl-1-oxo-1,2,3,4-tetrahydroisoquinolin-7-yl)-N-(4-methyltetrahydro-2H-pyran-4-yl)-7-oxo-4,5,6,7-tetrahydro-1H-pyrazolo[3,4-c]pyridine-3-carboxamide] | 300 to 1000 | > 40000 |
| Cc1cc(CNC(=O)c2nn(-c3cccc(Cl)c3)c3c2CCN(c2ccc4c(c2)C(=O)N(C)CC4)C3=O)nn1C [Example 1199, 1-(3-chlorophenyl)-N-((1,5-dimethyl-1H-pyrazol-3-yl)methyl)-6-(2-methyl-1-oxo-1,2,3,4-tetrahydroisoquinolin-7-yl)-7-oxo-4,5,6,7-tetrahydro-1H-pyrazolo[3,4-c]pyridine-3-carboxamide] | 100 to 300 | 10000 to 40000 |
| Cc1noc(C)c1CNC(=O)c1nn(-c2cccc(Cl)c2)c2c1CCN(c1ccc3c(c1)C(=O)N(C)CC3)C2=O [Example 1185, 1-(3-chlorophenyl)-N-((3,5-dimethylisoxazol-4-yl)methyl)-6-(2-methyl-1-oxo-1,2,3,4-tetrahydroisoquinolin-7-yl)-7-oxo-4,5,6,7-tetrahydro-1H-pyrazolo[3,4-c]pyridine-3-carboxamide] | 300 to 1000 | > 40000 |
| Cc1ccncc1CNC(=O)c1nn(-c2cccc(Cl)c2)c2c1CCN(c1ccc3c(c1)CN(C)CC3)C2=O [Example 1129, 1-(3-chlorophenyl)-6-(2-methyl-1,2,3,4-tetrahydroisoquinolin-7-yl)-N-((4-methylpyridin-3-yl)methyl)-7-oxo-4,5,6,7-tetrahydro-1H-pyrazolo[3,4-c]pyridine-3-carboxamide] | 10 to 100 | 3000 to 10000 |
| COc1ccncc1CNC(=O)c1nn(-c2cccc(Cl)c2)c2c1CCN(c1ccc3c(c1)C(=O)N(C)CC3)C2=O [Example 1271, 1-(3-chlorophenyl)-N-((4-methoxypyridin-3-yl)methyl)-6-(2-methyl-1-oxo-1,2,3,4-tetrahydroisoquinolin-7-yl)-7-oxo-4,5,6,7-tetrahydro-1H-pyrazolo[3,4-c]pyridine-3-carboxamide] | 100 to 300 | > 40000 |

Now from value to compound:

| IC50 [1] [nM] | IC50 (FXa) [nM] | Structure (SMILES) |
| --- | --- | --- |
| 100 to 300 | 3000 to 10000 | Cc1nc2c(C(=O)NCC3CC3)nn(-c3cccc(Cl)c3)c2c(=O)n1-c1ccc2c(c1)CN(C)CC2 [Example 3004, 1-(3-chlorophenyl)-N-(cyclopropylmethyl)-5-methyl-6-(2-methyl-1,2,3,4-tetrahydroisoquinolin-7-yl)-7-oxo-6,7-dihydro-1H-pyrazolo[4,3-d]pyrimidine-3-carboxamide] |
| 300 to 1000 | 3000 to 10000 | CN1CCc2ccc(N3CCc4c(C(=O)NC(C(=O)O)c5cccnc5)nn(-c5cccc(Cl)c5)c4C3=O)cc2C1=O (stereo not shown) [Example 1328, 2-(1-(3-chlorophenyl)-6-(2-methyl-1-oxo-1,2,3,4-tetrahydroisoquinolin-7-yl)-7-oxo-4,5,6,7-tetrahydro-1H-pyrazolo[3,4-c]pyridine-3-carboxamido)-2-(pyridin-3-yl)acetic acid] |
| 300 to 1000 | > 40000 | CN1CCc2ccc(N3CCc4c(C(=O)NCC5COC5)nn(-c5cccc(Cl)c5)c4C3=O)cc2C1=O [Example 1339, 1-(3-chlorophenyl)-6-(2-methyl-1-oxo-1,2,3,4-tetrahydroisoquinolin-7-yl)-N-(oxetan-3-ylmethyl)-7-oxo-4,5,6,7-tetrahydro-1H-pyrazolo[3,4-c]pyridine-3-carboxamide] |
| 100 to 300 | > 40000 | Cc1ncccc1CNC(=O)c1nn(-c2cccc(Cl)c2)c2c1CCN(c1ccc3c(c1)C(=O)N(C)CC3)C2=O [Example 1309, 1-(3-chlorophenyl)-6-(2-methyl-1-oxo-1,2,3,4-tetrahydroisoquinolin-7-yl)-N-((2-methylpyridin-3-yl)methyl)-7-oxo-4,5,6,7-tetrahydro-1H-pyrazolo[3,4-c]pyridine-3-carboxamide] |
| 1000 to 3000 | > 40000 | Cc1cc(CNC(=O)c2nn(-c3cccc(Cl)c3)c3c2CCN(c2ccc4c(c2)C(=O)N(C)[C@@H](CO)CO4)C3=O)nn1C [Example 1395, (S)-1-(3-chlorophenyl)-N-((1,5-dimethyl-1H-pyrazol-3-yl)methyl)-6-(3-(hydroxymethyl)-4-methyl-5-oxo-2,3,4,5-tetrahydrobenzo[f][1,4]oxazepin-7-yl)-7-oxo-4,5,6,7-tetrahydro-1H-pyrazolo[3,4-c]pyridine-3-carboxamide] |
| 3000 to 10000 | > 40000 | CCNC(=O)c1nn(-c2cccc(Cl)c2)c2c1CCN(c1cccc(N3CC4(CC4)N(C)C3=O)c1)C2=O [Example 1369, 1-(3-chlorophenyl)-N-ethyl-6-(3-(4-methyl-5-oxo-4,6-diazaspiro[2.4]heptan-6-yl)phenyl)-7-oxo-4,5,6,7-tetrahydro-1H-pyrazolo[3,4-c]pyridine-3-carboxamide] |
| 100 to 300 | > 40000 | Cc1cc(CNC(=O)c2nn(-c3cccc(Cl)c3)c3c2CCN(c2ccc4c(c2)C(=O)N(C(C)C)CCO4)C3=O)nn1C [Example 1320, 1-(3-chlorophenyl)-N-((1,5-dimethyl-1H-pyrazol-3-yl)methyl)-6-(4-isopropyl-5-oxo-2,3,4,5-tetrahydrobenzo[f][1,4]oxazepin-7-yl)-7-oxo-4,5,6,7-tetrahydro-1H-pyrazolo[3,4-c]pyridine-3-carboxamide] |
| 100 to 300 | > 40000 | Cc1nc2c(C(=O)NCC3CC3)nn(-c3cccc(Cl)c3)c2c(=O)n1-c1ccc2c(c1)C(=O)N(CCO)CC2 [Example 3016, 1-(3-chlorophenyl)-N-(cyclopropylmethyl)-6-(2-(2-hydroxyethyl)-1-oxo-1,2,3,4-tetrahydroisoquinolin-7-yl)-5-methyl-7-oxo-6,7-dihydro-1H-pyrazolo[4,3-d]pyrimidine-3-carboxamide] |
| 3000 to 10000 | 10000 to 40000 | CCNC(=O)c1nn(-c2cc(Cl)ccc2F)c2c1CCN(c1ccc3c(c1)C(=O)N(C)CC3)C2=O [Example 2030, 1-(5-chloro-2-fluorophenyl)-N-ethyl-6-(2-methyl-1-oxo-1,2,3,4-tetrahydroisoquinolin-7-yl)-7-oxo-4,5,6,7-tetrahydro-1H-pyrazolo[3,4-c]pyridine-3-carboxamide] |
